# Measured values as given in patent US20160263110A1 (priority 2013, published 2016).
# Several values for one entry are separate records, joined by “and”; a condition that tells them apart may be missing. Equal entries are not always repeated. Entries after “also recorded” stand apart in the source; their conditions may differ. Where two headings read alike, the source gives them in different places.
# Columns and labels:
# ALS mouse model = conditions: list of drugs tested in ALS, Zoccolella et al. 2009; cited from earlier work
# ALS patients = conditions: list of drugs tested in ALS, Zoccolella et al. 2009; cited from earlier work
# [1] = list of drugs tested in ALS, Zoccolella et al. 2009; cited from earlier work
# [2] = tested on: B6SJL-Tg SOD1G93A female mice; conditions: 30 mg/kg/day; from 90 to 120 days
# [3] = tested on: human cord blood mast cells; conditions: cited from earlier work
# [4] = safety data in non-oncology indications; format: in vivo
# [5] = tested on: B6SJL-Tg SOD1G93A female mice
# Non-Tg SOD1G93A mice = test: negative intervention control in Non-Tg SOD1G93A mice; conditions: 100 mg/kg/day
# SOD1G93A rats = test: ALS model in SOD1G93A rats: disease onset and survival
# [6] = tested on: B6SJL-Tg SOD1G93A female mice; conditions: for Age of onse, Averages / Age of deal, Averages: average of 8 mice; for Age of onse, Averages: control average 101.25; for Age of deal, Averages: control average 135
smiles,measurement,setting,value
CC/C(=C(\c1ccccc1)c1ccc(OCCN(C)C)cc1)c1ccccc1 [Tamoxifen],Mouse model,ALS mouse model,Overall positive
same,Benefits,ALS patients,survival benefit
same,Human Safety,[1],Relatively safe
"Cc1ccc(NC(=O)c2ccc(CN3CCN(C)CC3)cc2)cc1Nc1nc(-c2cccnc2)cs1 [masitinib, 4-(4-methylpiperazin-1-ylmethyl)-N-[4-methyl-3-(4-pyridin-3ylthiazol-2-ylamino)phenyl]benzamide]",weight loss versus Tg Ctrl,[2],reduced weight loss during the first stage of the disease
same,FccRI-mediated degranulation of human cord blood mast cells,[3],inhibition
same,"tolerability, difference between doses",[4]; 3 mg/kg/day versus 6 mg/kg/day,no obvious difference
same,tolerability,[4]; dosage up to 6 mg/kg/day,well-tolerated
same,hind-limb grip strength curve versus Tg Ctrl,[5]; 30 mg/kg/day,significantly improved the grip strength curve
same,hind-limb grip strength versus Tg Ctrl,"[5]; 100 mg/kg/day, from 90 to 120 days",improved the grip strength during the first stage of the disease
same,"results in Non-Tg animals, masitinib versus water",Non-Tg SOD1G93A mice,showed similar results to one another
same,survival without paralytic symptoms or weight loss (two rats of the group),SOD1G93A rats; 40 mg/kg oral,7 months
same,early paralysis and death (two rats of the group),SOD1G93A rats; 40 mg/kg oral once a day Monday to Friday,died before week 6
same,survival compared to control (vehicle),"SOD1G93A rats; 40 mg/kg oral, 5 times a week, 3 times a week from week 6, male rats from age 120 days, n=6",prolonged the survival; also recorded: survived longer
same,disease onset compared to vehicle,"SOD1G93A rats; 40 mg/kg oral, after week 6",develop the disease later
same,median survival compared with positive control group,[6]; 30 mg/kg/day,higher
same,Age of onse,"[6]; age of symptoms onset, individual mice, 100 mg/kg/day oral gavage Monday-Friday from 90 days old, 100 mg/kg/day",109 (2×) and 111 (5×) and 115
same,"Age of onse, Averages",[6]; 30 mg/kg/day,111.375
same,"Age of deal, Averages",[6]; 30 mg/kg/day,139.625
same,"Age of onse, Averages",[6]; 100 mg/kg/day,111
same,"Age of deal, Averages",[6]; 100 mg/kg/day,132.125
same,symptoms onset versus positive control,"[6]; both doses, 30 or 100 mg/kg/day",significant delay of symptoms onset
same,survival versus positive control,[6]; righting reflex as surrogate for survival,trend to improve survival
"Nc1nc2ccc(OC(F)(F)F)cc2s1 [riluzole, 6-(trifluoromethoxy)benzothiazol-2-amine]",Benefits,ALS patients,Positive transient impact
